Measurements: patent US20240208998A1, “COMPOUNDS FOR USE IN THE TREATMENT OF HYPERPROLIFERATIVE DISORDERS” (FUNDACIÓ PRIVADA INSTITUT D'INVESTIGACIÓ ONCOLÓGICA DE VALL …, priority 2021, published 2024)

How the values were obtained:
MDA-MB-468 (breast) = test: Antiproliferative activity on other tumour cell lines (CellTiter-Glo): MDA-MB-468; format: cell-based; details: Homo sapiens, MD-MB-468, 72 h of treatment
Experimental: (§1) Other human adherent cancer cell lines were cultured in their corresponding cell medium (as specified in Table 4) supplemented with 10% FBS (v/v) and 1% P/S (v/v). Twenty-four hours prior to treatment with the compounds to be tested (Examples 1, 12 and 21), the cells were seeded in 96-well plates at different densities depending of the cell line (as specified in Table 4).
(§2) Depending on the cell line, a 50, 125 or 250 μM solution of the compounds of examples 1, 12 and 21 were prepared in complete medium, and then serially diluted (1:2) (Table 5). A solution of complete medium with DMSO was used as a vehicle control.
(§3) Fifty microliters of each serially diluted compound solution was added by medium replacement in two wells (by duplicate). After 48 h of treatment, 50 μL of fresh 2X serially diluted compound solution was added to the corresponding wells of the plate (100 μL of final volume/well). After twenty-four additional hours (a total of 72 h of treatment), an equal volume (100 μL) of CellTiter-Glo Reagent (Promega) was added to each well, plates were shaken during 2 min and incubated at rt for 10 min. Luminescence was recorded using a Spark multimode microplate reader and an integration time of 1 s per well.

MCF7 (breast) = test: Antiproliferative activity on other tumour cell lines (CellTiter-Glo): MCF7; format: cell-based; details: Homo sapiens; MCF7, 72 h of treatment
Experimental: as §1, §2, §3

T98G (glioblastoma) = test: Antiproliferative activity on other tumour cell lines (CellTiter-Glo): T98G; format: cell-based; details: Homo sapiens, 72 h of treatment
Experimental: as §1, §2, §3

A375 (melanoma) = test: Antiproliferative activity on other tumour cell lines (CellTiter-Glo): A375; format: cell-based; details: Homo sapiens, A-375; A375, 72 h of treatment
Experimental: as §1, §2, §3

HL60 cell line = test: Antiproliferative activity on HL60 cell line (CellTiter-Glo); format: cell-based; details: Homo sapiens, HL-60; HL60, 72 h of treatment
Experimental: The human leukaemic cell line HL60 was grown in suspension in RPMI 1640 medium containing 10% (v/v) FBS and 1% (v/v) P/S (Life Technologies). […] Leukaemia cells were suspended at a density of 2×10^5 cells/mL in complete RPMI 1640 medium and 25 μL were seeded in each well (5×10^3 final total cells/well). A 10 μM solution of the compounds of examples 1, 12 and 21, and a 25 μM solution of all other compounds were prepared in complete medium, and then serially diluted (1:2) (as specified in Table 3 below). A solution of complete medium with DMSO was used as a vehicle control.
Twenty-five microliters of each serially diluted compound solution were added to the corresponding wells of the plate (50 μL of final volume/well). After 48 h of treatment, 50 μL of fresh 2X serially diluted compound solution was added to their corresponding wells (100 μL of final volume/well). After twenty-four additional hours, an equal volume (100 μL) of CellTiter-Glo Reagent (Promega) was added to each well, plates were shaken during 2 min and incubated at rt for 10 min. Luminescence was recorded using a Spark multimode microplate reader and an integration time of 1 s per well.

HCT116 (colon) = test: Antiproliferative activity on other tumour cell lines (CellTiter-Glo): HCT116; format: cell-based; details: Homo sapiens; HCT 116, 72 h of treatment
Experimental: as §1, §2, §3

human TET2 construct = human TET2 construct (Homo sapiens, UniProt Q6N021, A1837G/A1840G/D1704G/D1842G/DEL1471-1702/DEL1708-1833/E1841G/F1706G/N1843S/Q1834G/V1836G); test: Determination of TET2 binding by Surface Plasmon Resonance; details: SPR, Biacore T200, 25° C., steady state fit to single site interaction model
Experimental: The human methylcytosine dioxygenase TET2 construct used (1129-2002 with residues 1471-1843 replaced by a 15-residue GS-linker) was expressed in a pET-28a(+)psumo vector with kanamycin resistance and an N-terminal His6 tag, and cloned in Rosetta D3 Escherichia coli competent cells. Transformed cells were cultured overnight in 10 mL of LB media supplied with kanamycin (50 μg/mL), then scaled to 1 L LB medium supplied with kanamycin (50 μg/mL) and grown at 37° C. Once the optical density (OD600) achieved 0.8, protein expression was induced with 0.4 mM isopropyl-β-thiogalactopyranoside (IPTG) overnight at 18° C. Cells were harvested by centrifugation (8,000 rpm, 4° C., 30 min) and the pellet obtained was resuspended in 15 mL of buffer A (50 mM Hepes, 150 mM NaCl, 30 mM imidazole, 2 mM β-mercaptoethanol (pH 8.0) supplemented with Pierce protease inhibitor cocktail (ThermoFisher Scientific)) and lysed by sonication (1 min 40 s: 10 cycles×10 s ON, 30 s OFF, A=35%, T=19° C.) followed by two consecutive centrifugations (8,000 rpm, 4° C., 30 min) to clarify the lysate.
The TET2 protein was purified using an AKTA Start system (GE Healthcare, Uppsala, Sweden) by two-step purification procedure: one His-affinity chromatography followed by a size exclusion chromatography. First, the protein fraction obtained during the lysis (supernatant) was applied to a 5 mL HisTrap HP column (GE Healthcare), washed with buffer A (50 mM Hepes, 150 mM NaCl, 30 mM imidazole, 2 mM […] (pH 8.0)) and the bound protein was eluted with buffer B (50 mM Hepes, 150 mM NaCl, 250 mM imidazole, 2 mM β-mercaptoethanol (pH 8.0)). The eluted protein-containing fractions were pooled and concentrated up to 4 mL for the last purification step: a size exclusion chromatography (HiPrep 16/60 Sephacryl S-100 HR) in 50 mM Hepes, 150 mM NaCl, 2 mM β-mercaptoethanol (pH 8.0). Finally, the mass and purity of the protein were verified by SDS-electrophoresis and mass spectrometry.
The binding of compounds of the examples was determined by Surface Plasmon Resonance (SPR) using a Biacore T200 SPR biosensor instrument (GE Healthcare, Uppsala, Sweden) at 25° C. The human TET2 construct was immobilized on a CM5 sensor chip using a standard covalent immobilization via amine coupling following the activation of the carboxymethyl dextran matrix of the sensor chip (injection of a solution containing 0.1 M N-hydroxysuccinimide and 0.4 M 1-ethyl-3-[3-(dimethylamino)propyl]carbodiimide hydrochloride at a flow rate of 15 μL/min for 7 min). The protein immobilization was achieved after the injection of 5 μg/mL TET2 in 10 mM sodium acetate (pH 4.0) at a flow rate of 5 μL/min. Unreacted activated groups of the dextran matrix were deactivated by injection of 1 M ethanolamine hydrochloride for 7 min at a flow rate of 15 μL/min. The corresponding matrix activation and protein immobilization were performed using as a running buffer a phosphate buffered saline solution (1.05× PBS: 10 mM phosphate, pH 7.4, 150 mM NaCl). The screened compounds were prepared in a 20 mM stock solution in DMSO and diluted with 1.05× PBS to achieve a final 5% (v/v) DMSO concentration. The running buffer of the interaction assays consisted of 1×PBS, 5% (v/v) DMSO. The flow rate used for the screening was 60 μL/min and the ligand association and dissociation times set were 60 s and 120 s, respectively.
For data analysis the software used was the Biacore T200 Evaluation software. Different corrections were applied. First, the nonspecific binding to the chip surface and the baseline drift were corrected subtracting the signals of a reference surface (where the immobilization procedure was carried out without proteins) to the signals obtained on the TET2 surface. Second, a series of solvent standards (solvent correction) were introduced to remove the differences derived from the DMSO. Finally, the background was corrected subtracting blank injections (blank subtraction) to the injected compound signals.

Hop62 (lung) = test: Antiproliferative activity on other tumour cell lines (CellTiter-Glo): Hop62; format: cell-based; details: Homo sapiens, HOP-62; Hop62, 72 h of treatment
Experimental: as §1, §2, §3

LN229 (glioblastoma) = test: Antiproliferative activity on other tumour cell lines (CellTiter-Glo): LN229; format: cell-based; details: Homo sapiens, LN-229; LN229, 72 h of treatment
Experimental: as §1, §2, §3

Compound: Cc1[nH]c2ccccc2c1-c1csc(NC(=O)Cc2cn3ccsc3n2)n1 [Example 1, 2-(imidazo[2,1-b]thiazol-6-yl)-N-[4-(2-methyl-1H-indol-3-yl)thiazol-2-yl]acetamide]
- EC50 (MDA-MB-468 (breast)): 16 µM
- EC50 (MCF7 (breast)): 14.6 µM
- EC50 (T98G (glioblastoma)): 73.7 µM
- EC50 (A375 (melanoma)): 1400 nM
- EC50 (HL60 cell line): 113 nM
- EC50 (HCT116 (colon)): 12.1 µM
- Kd (human TET2 construct): 16 µM
- EC50 (Hop62 (lung)): 40.1 µM
- melting point: 210 to 212 °C
- EC50 (LN229 (glioblastoma)): 3.3 µM

Compound: Cc1[nH]c2ccccc2c1-c1csc(NC(=O)Cc2csc3nccn23)n1 [Example 2, 2-(imidazo[2,1-b]thiazol-3-yl)-N-[4-(2-methyl-1H-indol-3-yl)thiazol-2-yl]acetamide]
- EC50 (HL60 cell line): 4300 nM
- Kd (human TET2 construct): 15 µM
- melting point: 160 to 163 °C
